Source: patent publication US8445477B2, “Azetidinyl diamides as monoacylglycerol lipase inhibitors” (Janssen Pharmaceutica, NV, priority 2009, dated 2013)

Key:
[1] = system: CFA-induced thermal hypersensitivity of the rat hind paw; assay: CFA-Induced Paw Radiant Heat Hypersensitivity; format: in vivo; details: 30 mg/kg p.o., HPβCD, group mean values, maximum at any time point up to 180 or 300 min
Method: Each rat was placed in a test chamber on a warm glass surface and allowed to acclimate for approximately 10 min. A radiant thermal stimulus (beam of light) was then focused through the glass onto the plantar surface of each hind paw in turn. The thermal stimulus was automatically shut off by a photoelectric relay when the paw was moved or when the cut-off time was reached (20 sec for radiant heat at ˜5 amps). An initial (baseline) response latency to the thermal stimulus was recorded for each animal prior to the injection of complete Freund's adjuvant (CFA). 24 h following intraplantar CFA injection, the response latency of the animal to the thermal stimulus was then re-evaluated and compared to the animal's baseline response time. […] Post-compound treatment withdrawal latencies were assessed at fixed time intervals, typically 30, 60, 120, 180, and 300 min.
The percent reversal (% R) of hypersensitivity was calculated in one of two different ways: 1) using group mean values or 2) using individual animal values. […]
Method 1. For all compounds, the % R of hypersensitivity was calculated using the mean value for groups of animals at each time point according to the following formula: % reversal=[(group treatment response−group CFA response)/(group baseline response−group CFA response)]×100 Results are given for the maximum % reversal observed for each compound at any time point tested. […]

[2] = molecular target: T1, MGL in rat brain homogenate (Rattus norvegicus, UniProt Q8R431); assay: 2-AG Accumulation Assay (rat brain homogenate); format: biochemical; details: compound 1 μM, percent vehicle = 2-AG accumulation with compound / vehicle ×100, read-out: Rat Brain 2AG % VehCntrl (%) @ 1 μM
T1 construct: one g rat brain was homogenized; from tissue; host or cells: rat brain homogenate
T1 sequence (Q8R431 1-303): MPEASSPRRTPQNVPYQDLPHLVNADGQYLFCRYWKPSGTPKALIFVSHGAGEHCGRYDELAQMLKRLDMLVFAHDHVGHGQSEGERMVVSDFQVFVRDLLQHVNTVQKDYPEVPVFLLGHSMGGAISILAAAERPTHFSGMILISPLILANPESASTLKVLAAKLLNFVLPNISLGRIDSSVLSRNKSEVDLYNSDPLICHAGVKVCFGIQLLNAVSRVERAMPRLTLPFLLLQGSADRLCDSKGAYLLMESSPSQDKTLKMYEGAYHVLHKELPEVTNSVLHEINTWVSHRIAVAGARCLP

| activity at 1 µM [2] | Compound | Method 1: peak % reversal [1] |
| --- | --- | --- |
| – | O=C(c1ccc(-c2cccc(C(F)(F)F)c2)c(Cl)c1)N1CC(N2CCN(C(=O)c3cscn3)CC2)C1 [Cpd 1102] | 38% |
| 828% | O=C(c1ccc2c(ccn2-c2ncc(C(F)(F)F)cc2Cl)c1)N1CC(N2CCN(C(=O)c3nccs3)CC2)C1 [Cpd 1116] | – |
